Test results as given in ChEMBL document CHEMBL1158830, “Digitoxin inhibits the growth of cancer cell lines at concentrations commonly found in cardiac patients” (J Nat Prod, 2005).
Activity calls are given as the source filed them. The rule behind the calls is not given here.

Columns and labels:
TK-10 [1] = assay: Cytotoxicity against human TK10 cells after 48 hrs by SRB assay; format: functional, cell-based; details: TK-10, 48 h
MCF7 = assay: Cytotoxicity against human MCF7 cells after 48 hrs by SRB assay; format: functional, cell-based; details: MCF7, 48 h
UACC-62 = assay: Cytotoxicity against human UACC62 cells after 48 hrs by SRB assay; format: functional, cell-based; details: UACC-62, 48 h
Homo sapiens = organism: Homo sapiens; assay: Plasma concentration in human; format: ADME, organism-based; details: in vivo
K562 = assay: Cytotoxicity against human K562 cells by XTT assay; format: functional, cell-based
TK-10 [2] = assay: Induction of apoptosis in human TK10 cells assessed as viable cells at 3 nM for 48 hrs measured after 3 days of drug removal by fluorescence microscopy assay; format: functional; details: read-out: Activity
TK-10 [3] = assay: Induction of apoptosis in human TK10 cells assessed as apoptotic cells at 3 nM for 48 hrs measured after 3 days of drug removal by fluorescence microscopy assay; format: functional
TK-10 [4] = assay: Induction of apoptosis in human TK10 cells assessed as necrotic cells at 3 nM for 48 hrs measured after 3 days of drug removal by fluorescence microscopy assay; format: functional
[5] = biological target: DNA topoisomerase 2-alpha (Homo sapiens) (UniProt P11388); assay: Inhibition of topoisomerase 2alpha-mediated cleavage of double-stranded pRYG DNA assessed as linear DNA at 30 nM by agarose gel electrophoresis
[6] = biological target: DNA topoisomerase 2-alpha (Homo sapiens) (UniProt P11388); assay: Inhibition of topoisomerase 2alpha-mediated cleavage of double-stranded pRYG DNA assessed as linear DNA at 100 nM by agarose gel electrophoresis
[7] = biological target: DNA topoisomerase 2-alpha (Homo sapiens) (UniProt P11388); assay: Inhibition of topoisomerase 2alpha-mediated cleavage of double-stranded pRYG DNA assessed as linear DNA at 100 uM by agarose gel electrophoresis
[8] = biological target: DNA topoisomerase 2-beta (Homo sapiens) (UniProt Q02880); assay: Inhibition of topoisomerase 2beta in human K562 cells assessed as cleavage of supercoiled pRYG DNA at 300 nM by TARDIS assay; format: cell-based; details: TDE = time-dependent effect
[9] = biological target: DNA topoisomerase 2-beta (Homo sapiens) (UniProt Q02880); assay: Inhibition of topoisomerase 2beta in human K562 cells assessed as cleavage of supercoiled pRYG DNA at 300 nM after 0.5 hrs by TARDIS assay relative to control; format: cell-based
[10] = biological target: DNA topoisomerase 2-beta (Homo sapiens) (UniProt Q02880); assay: Inhibition of topoisomerase 2beta in human K562 cells assessed as cleavage of supercoiled pRYG DNA at 300 nM after 24 hrs by TARDIS assay; format: cell-based

DNA topoisomerase 2-beta (Homo sapiens), sequence (Q02880 whole entry): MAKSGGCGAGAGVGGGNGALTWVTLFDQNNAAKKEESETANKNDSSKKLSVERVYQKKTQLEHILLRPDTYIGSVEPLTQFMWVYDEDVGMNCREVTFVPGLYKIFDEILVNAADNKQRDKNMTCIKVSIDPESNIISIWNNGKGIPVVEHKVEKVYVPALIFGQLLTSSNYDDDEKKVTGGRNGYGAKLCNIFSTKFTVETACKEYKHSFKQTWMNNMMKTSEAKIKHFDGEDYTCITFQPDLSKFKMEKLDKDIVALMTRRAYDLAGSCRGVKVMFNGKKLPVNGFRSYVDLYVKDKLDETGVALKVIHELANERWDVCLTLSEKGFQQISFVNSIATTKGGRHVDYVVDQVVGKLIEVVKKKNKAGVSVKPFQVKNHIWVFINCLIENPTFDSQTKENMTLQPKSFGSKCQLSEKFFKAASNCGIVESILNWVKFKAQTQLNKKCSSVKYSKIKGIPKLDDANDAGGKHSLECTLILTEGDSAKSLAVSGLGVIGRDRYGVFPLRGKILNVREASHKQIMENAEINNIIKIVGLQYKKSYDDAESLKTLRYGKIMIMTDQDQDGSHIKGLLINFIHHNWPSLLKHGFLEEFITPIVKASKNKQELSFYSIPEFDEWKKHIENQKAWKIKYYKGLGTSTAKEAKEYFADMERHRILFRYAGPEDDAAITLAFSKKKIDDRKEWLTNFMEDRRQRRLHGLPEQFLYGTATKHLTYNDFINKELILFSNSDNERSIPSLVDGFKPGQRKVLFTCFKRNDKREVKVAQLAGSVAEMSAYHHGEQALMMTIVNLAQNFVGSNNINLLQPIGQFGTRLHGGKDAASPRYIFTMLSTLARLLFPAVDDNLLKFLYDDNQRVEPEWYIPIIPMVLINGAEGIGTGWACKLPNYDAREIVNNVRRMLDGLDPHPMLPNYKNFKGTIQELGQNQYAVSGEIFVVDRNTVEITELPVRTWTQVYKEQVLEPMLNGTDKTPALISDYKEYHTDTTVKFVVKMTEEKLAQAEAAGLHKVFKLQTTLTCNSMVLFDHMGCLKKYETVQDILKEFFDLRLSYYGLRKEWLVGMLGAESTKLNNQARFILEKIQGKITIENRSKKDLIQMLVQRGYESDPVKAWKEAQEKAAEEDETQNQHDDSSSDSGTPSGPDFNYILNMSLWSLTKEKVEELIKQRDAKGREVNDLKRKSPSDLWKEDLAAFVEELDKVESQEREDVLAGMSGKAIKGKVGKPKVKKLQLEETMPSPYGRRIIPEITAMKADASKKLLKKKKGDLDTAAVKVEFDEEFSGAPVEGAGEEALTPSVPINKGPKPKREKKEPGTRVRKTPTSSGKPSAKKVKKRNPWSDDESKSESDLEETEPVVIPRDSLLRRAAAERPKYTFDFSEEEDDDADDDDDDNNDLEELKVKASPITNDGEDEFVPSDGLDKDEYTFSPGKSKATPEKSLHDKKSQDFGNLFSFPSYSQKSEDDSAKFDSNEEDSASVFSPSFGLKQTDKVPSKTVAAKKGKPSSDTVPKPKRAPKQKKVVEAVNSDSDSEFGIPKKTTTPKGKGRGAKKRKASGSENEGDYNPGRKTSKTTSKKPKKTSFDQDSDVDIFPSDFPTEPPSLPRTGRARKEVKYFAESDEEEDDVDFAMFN
DNA topoisomerase 2-alpha (Homo sapiens), sequence (P11388 whole entry): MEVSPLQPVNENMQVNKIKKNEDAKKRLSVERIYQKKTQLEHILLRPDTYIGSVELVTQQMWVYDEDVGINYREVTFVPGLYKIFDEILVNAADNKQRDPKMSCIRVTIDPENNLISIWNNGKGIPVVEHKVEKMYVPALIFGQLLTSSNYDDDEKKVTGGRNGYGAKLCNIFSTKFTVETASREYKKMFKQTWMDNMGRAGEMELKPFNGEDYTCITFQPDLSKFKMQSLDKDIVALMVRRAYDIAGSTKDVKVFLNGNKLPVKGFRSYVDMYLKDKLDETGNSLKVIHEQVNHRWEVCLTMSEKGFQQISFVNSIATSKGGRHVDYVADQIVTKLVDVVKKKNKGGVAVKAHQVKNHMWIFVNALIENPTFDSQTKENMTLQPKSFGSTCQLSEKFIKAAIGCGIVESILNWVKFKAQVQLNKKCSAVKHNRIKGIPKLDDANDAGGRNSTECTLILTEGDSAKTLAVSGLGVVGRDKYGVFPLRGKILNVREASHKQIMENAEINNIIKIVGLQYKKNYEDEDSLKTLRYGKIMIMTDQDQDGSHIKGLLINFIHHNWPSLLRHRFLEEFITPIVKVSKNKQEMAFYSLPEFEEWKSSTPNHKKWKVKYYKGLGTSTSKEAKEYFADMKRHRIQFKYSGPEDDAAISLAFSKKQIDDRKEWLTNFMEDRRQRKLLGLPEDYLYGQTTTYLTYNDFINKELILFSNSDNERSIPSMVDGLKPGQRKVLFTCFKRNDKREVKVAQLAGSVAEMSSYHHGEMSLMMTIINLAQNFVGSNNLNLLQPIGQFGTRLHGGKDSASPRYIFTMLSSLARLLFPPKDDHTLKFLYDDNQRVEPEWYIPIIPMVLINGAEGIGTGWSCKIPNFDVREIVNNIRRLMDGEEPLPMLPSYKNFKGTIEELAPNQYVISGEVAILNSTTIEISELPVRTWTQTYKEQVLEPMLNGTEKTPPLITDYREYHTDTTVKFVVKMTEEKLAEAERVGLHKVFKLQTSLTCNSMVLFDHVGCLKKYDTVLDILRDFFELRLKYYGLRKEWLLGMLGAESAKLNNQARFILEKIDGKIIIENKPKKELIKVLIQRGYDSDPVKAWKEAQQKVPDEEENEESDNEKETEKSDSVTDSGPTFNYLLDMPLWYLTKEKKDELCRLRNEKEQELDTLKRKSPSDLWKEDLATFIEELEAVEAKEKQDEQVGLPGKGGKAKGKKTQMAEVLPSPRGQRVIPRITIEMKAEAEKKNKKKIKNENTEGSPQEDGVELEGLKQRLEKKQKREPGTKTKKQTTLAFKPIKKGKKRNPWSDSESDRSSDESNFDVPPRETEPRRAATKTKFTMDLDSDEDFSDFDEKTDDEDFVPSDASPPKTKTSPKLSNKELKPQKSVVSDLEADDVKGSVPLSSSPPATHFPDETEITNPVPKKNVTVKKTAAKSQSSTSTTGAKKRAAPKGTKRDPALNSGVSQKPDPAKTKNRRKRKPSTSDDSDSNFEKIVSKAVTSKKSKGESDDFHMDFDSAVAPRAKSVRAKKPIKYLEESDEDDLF

SMILES	IC50 (TK-10 [1]) [nM]	IC50 (MCF7) [nM]	IC50 (UACC-62) [nM]	further results
C[C@H]1O[C@@H](O[C@H]2[C@@H](O)C[C@H](O[C@H]3[C@@H](O)C[C@H](O[C@H]4CC[C@@]5(C)[C@H](CC[C@@H]6[C@@H]5CC[C@]5(C)[C@@H](C7=CC(=O)OC7)CC[C@]65O)C4)O[C@@H]3C)O[C@@H]2C)C[C@H](O)[C@@H]1O [DIGITOXIN]	3.2	10.2	33.5	concentration (Homo sapiens): 19.6 nM; IC50 (K562): 6.4 nM; viability at 0.003 µM (TK-10 [2]): 52.1%; Activity (TK-10 [3]): 41.3%; Activity (TK-10 [4]): 6.6%; Activity [5]: inactive; Activity [6]: inactive; Activity [7]: Active; Activity [8]: tde; Activity [9]: Active; Activity [10]: Active
C[C@]12CC[C@H](O)C[C@H]1CC[C@@H]1[C@@H]2CC[C@]2(C)[C@@H](C3=CC(=O)OC3)[C@@H](O)C[C@]12O [GITOXIGENIN]	416	1810	2840	–
COc1cc([C@@H]2c3cc4c(cc3[C@@H](O[C@@H]3O[C@@H]5CO[C@@H](C)O[C@H]5[C@H](O)[C@H]3O)[C@H]3COC(=O)[C@H]23)OCO4)cc(OC)c1O [ETOPOSIDE]	9950	878	1130	–
C[C@H]1O[C@@H](O[C@H]2[C@@H](O)C[C@H](O[C@H]3[C@@H](O)C[C@H](O[C@H]4CC[C@@]5(C)[C@H](CC[C@@H]6[C@@H]5C[C@@H](O)[C@]5(C)[C@@H](C7=CC(=O)OC7)CC[C@]65O)C4)O[C@@H]3C)O[C@@H]2C)C[C@H](O)[C@@H]1O [DIGOXIN]	14.6	24.1	29.5	concentration (Homo sapiens): 0.6 nM; IC50 (K562): 28.2 nM
C[C@]12CC[C@H](O)C[C@H]1CC[C@@H]1[C@@H]2CC[C@]2(C)[C@@H](C3=CC(=O)OC3)CC[C@]12O [DIGITOXIGENIN]	76.5	194	349	–
C[C@H]1O[C@@H](O[C@H]2[C@@H](O)C[C@H](O[C@H]3[C@@H](O)C[C@H](O[C@H]4CC[C@@]5(C)[C@H](CC[C@@H]6[C@@H]5CC[C@]5(C)[C@@H](C7=CC(=O)OC7)[C@@H](O)C[C@]65O)C4)O[C@@H]3C)O[C@@H]2C)C[C@H](O)[C@@H]1O [GITOXIN]	131	252	369	–
C[C@]12CC[C@H](O)C[C@H]1CC[C@@H]1[C@@H]2C[C@@H](O)[C@]2(C)[C@@H](C3=CC(=O)OC3)CC[C@]12O [DIGOXIGENIN]	318	507	416	–
